Measurements published in US9068166B2, “Use of compounds for inducing differentiation of mesenchymal stem cells to chondrocytes” (Industry-Academic Cooperation Foundation Yonsei University, priority 2010, dated 2015).

Key:
[1] = system: human adipose tissue-derived mesenchymal stem cells; experiment: Sandwich ELISA of aggrecan expression (chondrocyte marker) in treated mesenchymal stem cells; type: cell-based; conditions: for induction of differentiation of mesenchymal stem cells to chondrocytes (aggrecan expression) compared with A1942: sandwich ELISA, p<0.001 vs. control, FIG. 5
Description: (§1) 60 cc of an expanding solution (obtained by adding 30 mL of 1% lidocaine, 30 mL of 0.5% bupivacaine, 10 mL of 4.2% sodium bicarbonate and 1 mg of epinephrine to 1 L of normal water for injection) was applied to the periphery of a navel under sterile conditions. Fats were suctioned using Mercedes 3 mm×9 cm Aspiration Luer Lock Cannula (Byron Medical, Tucson, Ariz.), and then instantly kept on ice. Since a lipoaspirate filtered through a 250 mm sieve included an anesthetic and a contaminant such as blood, the lipoaspirate was washed with phosphate buffered saline (PBS) to remove the anesthetic and the contaminant. Collagenase I (1 mg/mL; Worthington Biochemical Corp., Lakewood, N.J.) was added to the obtained fat tissues, stirred, and then kept at 37° C. for an hour. The suspended adipose tissues were centrifuged at 1,500×g for 10 minutes, and a supernatant containing matured fat cells was discarded. The obtained stroma vascular (SV) cells were washed with 0.1% BSA, suspended in an M-199 medium (including 12.8% fetal bovine serum, heparin, 10,000 U/mL penicillin G, 25 mg/mL amphotericin B, and 10,000 mg/mL streptomycin), plated on a gelatin-coated tissue culture flask, and then incubated. After 24 hours, the tissue culture flask was washed to remove non-attached cells, and the incubation was continued.
[…] In this case, the mesenchymal stem cells were incubated for 11 days while replacing a medium including the compound of Formula 1 with a fresh one once every 3 days.
A capture antibody was bound to the bottom of each well, and the plate was then incubated overnight at 4° C. The plate was washed twice with PBS (Gibco), and treated with 100 μl of PBS containing 3% BSA at room temperature for 2 to 3 hours. The plate was washed twice with PBS, and a cell lysate was added to each well. Then, the plate was incubated at room temperature for 2 hours under a wet atmosphere. The plate was washed four times with PBS containing 0.02% Tween-20 (Sigma). A detector antibody was added to the plate, and the plate was then incubated at room temperature for 2 hours under a wet atmosphere. Thereafter, the plate was incubated with a peroxidase-conjugated secondary antibody at 37° C. for an hour. Finally, the plate was treated with 100 μl of a tetramethylbenzidine (TMB) solution (Sigma) as a substrate, and 25 μl of 0.1 M H2SO4 was added as a terminating buffer to stop the reaction. Immediately after the reaction, the absorbance was measured at 450 nm using an ELISA plate reader (Bio-Rad).

[2] = system: human adipose tissue-derived mesenchymal stem cells; experiment: Alcian Blue dyeing of sulfated proteoglycan (quantified chondrogenesis); type: cell-based; conditions: 1 μM, 11 days, optical density at 650 nm, p<0.05 vs. control, FIG. 1
Description: as §1, with “The obtained stroma vascular (SV) cells were washed with 0.1% BSA, suspended in an M-199 medium (including 12.8% fetal bovine serum, heparin, 10,000 U/mL penicillin G, 25 mg/mL amphotericin B, and 10,000 mg/mL streptomycin), plated on a gelatin-coated tissue culture flask, and then incubated. After 24 hours, the tissue culture flask was washed to remove non-attached cells, and the incubation was continued.” left out
Cells were first washed three times with PBS (Gibco), and then immobilized with 100% methanol (Sigma) at −20° C. for 10 minutes. […] To quantify the dyeing intensity, the dyed culture plate was washed three times with PBS, and each well was extracted with 1 ml of 6 M guanidine-HCl (Sigma) overnight at room temperature. The optical density of the extracted dye was measured at 650 nm.

ERK = experiment: Western blotting of ERK phosphorylation in treated mesenchymal stem cells; type: cell-based, human; conditions: FIG. 3
Description: 60 cc of an expanding solution (obtained by adding 30 mL of 1% lidocaine, 30 mL of 0.5% bupivacaine, 10 mL of 4.2% sodium bicarbonate and 1 mg of epinephrine to 1 L of normal water for injection) was applied to the periphery of a navel under sterile conditions. Fats were suctioned using Mercedes 3 mm×9 cm Aspiration Luer Lock Cannula (Byron Medical, Tucson, Ariz.), and then instantly kept on ice. Since a lipoaspirate filtered through a 250 mm sieve included an anesthetic and a contaminant such as blood, the lipoaspirate was washed with phosphate buffered saline (PBS) to remove the anesthetic and the contaminant. […]
Cells were washed once with PBS, and lysed for approximately 20 minutes in a lysis buffer (Cell Signaling Technology) containing 20 mM Tris (pH 7.5), 150 mM NaCl, 1 mM Na2-EDTA, 1 mM EGTA, 1% Triton, 2.5 mM sodium pyrophosphate, 1 mM β-glycerophosphate, 1 mM Na3VO4, 1 mg/ml leupeptin and 1 mM phenylmethylsulfonyl fluoride. […] A concentration of proteins was measured using a Bradford protein assay kit (Bio-Rad). A quantitative protein was separated on a 12% sodium dodecyl sulfate-polyacrylamide gel, and transferred to a polyvinylidene difluoride membrane (Millipore). […] After thorough washing, a band was detected using an improved chemiluminogenic reagent (GE Healthcare Life Sciences). The intensity of the band was quantified using an Image J 1.40 g software (NIH).

[3] = system: fibronectin, α5-integrin, N-cadherin; experiment: Semi-quantitative RT-PCR of fibronectin, integrin α5β1 and N-cadherin in treated mesenchymal stem cells; type: cell-based, human; conditions: 1 μM for 11 days, normalized to GAPDH, FIG. 4
Description: as §1
When the mesenchymal stem cells were subcultured twice, the mesenchymal stem cells were seeded at a density of 2×10^5 cells/ml in a 60 mm plate containing the same medium as described above, and treated with the compound of Formula 1 (each of the compounds of Examples 1 to 28) at a final concentration of 10 nM, 100 nM, 1 μM, or 10 μM. In this case, the mesenchymal stem cells were incubated for 11 days while replacing a medium including the compound of Formula 1 with a fresh one once every 3 days.
Expression levels of various genes were analyzed through an RT-PCR method. Total RNA was obtained using an Ultraspect™-II RNA system (Biotecx Laboratories, Inc., USA) and an easy-BLUE™ kit (Intron Biotechnology, Seoul, South Korea). […]

O=C(O)c1cc(NS(=O)(=O)c2cccc3cccnc23)ccc1O [Compound A1944, 2-Hydroxy-5-(quinoline-8-sulfonylamino)-benzoic acid]
induction of differentiation of mesenchymal stem cells to chondrocytes (aggrecan expression) compared with A1942 [1]: at a level similar to the A1942 compound

Cc1ccc(S(=O)(=O)Nc2ccc(O)c3ccccc23)cc1 [Compound A1950, N-(4-hydroxy-naphthalen-1-yl)-4-methyl-benzenesulfonamide]
induction of differentiation of mesenchymal stem cells to chondrocytes (aggrecan expression) compared with A1942 [1]: at a level similar to the A1942 compound

O=S(=O)(Nc1cccc2c(O)cccc12)c1ccc(-c2ccccc2)cc1 [Compound A1949, Biphenyl-4-sulfonic acid (5-hydroxy-naphthalen-1-yl)-amide]
induction of differentiation of mesenchymal stem cells to chondrocytes (aggrecan expression) compared with A1942 [1]: at a level similar to the A1942 compound

O=S(=O)(Nc1ccc(O)cc1)c1cccc2cccnc12 [Compound A1942, Quinoline-8-sulfonic acid (4-hydroxy-phenyl)-amide]
relative absorbance (Alcian Blue) versus control [2]: approximately 3 times | expression level of aggrecan ([1]; 0.1, 0.5 and 1 μM for 11 days, FIG. 2): increased in a dose-dependent manner | phosphorylation level of ERK (ERK; 1 μM for 11 days): increased with time | expression level of N-cadherin [3]: decreased with time | expression level of fibronectin [3]: decreased with time | expression level of α5-integrin [3]: decreased with time

CC(C)(C)c1ccc(S(=O)(=O)Nc2ccc(O)c(C(=O)O)c2)cc1 [Compound A1948, 5-(4-Tert-butyl-benzenesulfonyl-amino)-2-hydroxy-benzoic acid]
induction of differentiation of mesenchymal stem cells to chondrocytes (aggrecan expression) compared with A1942 [1]: at a level similar to the A1942 compound

N#CC(=C(/N)Sc1ccccc1N)/C(C#N)=C(\N)Sc1ccccc1N [Compound U0126, reference compound]
expression level of aggrecan, co-treatment with A1942 ([1]; mesenchymal stem cells treated with 1 μM A1942 + U0126, FIG. 2): reduced an expression level of the aggrecan | phosphorylation level of ERK, group treated with A1942 and U0126 (ERK; A1942 1 μM plus U0126, 11 days): did not increase with time

O=S(=O)(Nc1cccc2ccc(O)cc12)c1cccc2cccnc12 [Compound A1943, Quinoline-8-sulfonic acid (7-hydroxy-naphthalen-1-yl)-amide]
induction of differentiation of mesenchymal stem cells to chondrocytes (aggrecan expression) compared with A1942 [1]: at a level similar to the A1942 compound
